Data: patent US7968093B2, “Fully human antibodies directed against the human insulin-like growth factor-1 receptor” (ImClone LLC, priority 2003, dated 2011)

Test system: MCF7 human breast cancer
Assay: MCF7 xenograft, A12 monotherapy
Type: in vivo, nude mice
Description: In order to assess its activity on MCF7 tumor growth in vivo, a mouse xenograft tumor model was utilized. MCF7 cells were originally isolated from an estrogen-dependent human tumor and require exogenously added estrogen for maintenance and growth in vivo. Nude mice were implanted with biodegradable estrogen pellets (0.72 mg 17-β-estradiol/pellet, 60 day release). In addition, at the time of subcutaneous tumor cell injection, the mice were also injected in the right flank subcutaneously with 0.5 mg of estradiol in a 50 μl suspension of sesame seed oil. Tumors were allowed to establish a size of approximately 150 mm^3 before antibody treatment was initiated. Antibody was injected at 1 mg, 100 μg, and 10 μg doses every three days and continued for the duration of the experiment. At 29 days, treatment of animals with 1 mg of A12 effected an 89% reduction in tumor growth (FIG. 25). Minimal growth was apparent for the established tumors in this treatment group.

“A12: fully human IgG1 anti-IGF-IR antibody, lambda light chain; VH SEQ ID NO:2, VL SEQ ID NO:10; affinity matured from 2F8” was tested, and the “reduction in tumor growth” value (1 mg every three days, at 29 days) was 89% and the tumor regression (antibody alone 1 mg/dose, continued to termination (50 days)) was “tumor regression was observed”.
